Where “and” joins values, the source holds several entries; their conditions need not be identical. Identical values can stand only once.
How the values were obtained:
Test in all cases: FP assay with Cy5-labelled p62 LIR tracer (protein titration and tracer displacement)
GABARAP = GABARAP (Homo sapiens, UniProt O95166); format: binding; conditions: for normalized FP signal, p62 LIR tracer displacement: GABARAP; for compound titration GABARAP (displacement curve, FP signal): two replicate columns per compound
GABARAPL1 = GABARAPL1 (Homo sapiens, UniProt Q9H0R8); format: binding; conditions: for normalized FP signal, p62 LIR tracer displacement: GABARAPL1; for compound titration GABARAPL1 (displacement curve, FP signal): two replicate columns per compound; for FP tracer displacement curve signal (compound titration): duplicate values
GABARAPL2 = GABARAPL2 (Homo sapiens, UniProt P60520); conditions: GABARAPL2
[1] = log10 concentration [M] -4.1549, listed as AN2
[2] = log10 concentration [M] -4.60206, listed as AN2
[3] = log10 concentration [M] -5, listed as AN2
[4] = log10 concentration [M] -5.30103, listed as AN2
[5] = log10 concentration [M] -5.69897, listed as AN2
[6] = log10 concentration [M] -6.22185, listed as AN2
[7] = log10 concentration [M] -6.69897, listed as AN2
[8] = log10 concentration [M] -7.30103
[9] = log10 concentration [M] -7.79588, listed as AN2
[10] = log10 concentration [M] -8.08092
[11] = log10 concentration [M] -8.08092, listed as AN2
[12] = log10 concentration [M] -3.82391
[13] = log10 concentration [M] -4.1549
[14] = log10 concentration [M] -4.60206
[15] = log10 concentration [M] -5.69897
[16] = log10 concentration [M] -6.69897
[17] = log10 concentration [M] -3.82391, listed as AN2
[18] = log10 concentration [M] -7.30103, listed as AN2

Sequence of GABARAPL2 (P60520 whole entry): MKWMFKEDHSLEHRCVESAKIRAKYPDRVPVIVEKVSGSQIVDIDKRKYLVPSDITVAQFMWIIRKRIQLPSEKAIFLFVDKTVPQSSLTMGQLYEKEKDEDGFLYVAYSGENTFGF
Sequence of GABARAPL1 (Q9H0R8 whole entry): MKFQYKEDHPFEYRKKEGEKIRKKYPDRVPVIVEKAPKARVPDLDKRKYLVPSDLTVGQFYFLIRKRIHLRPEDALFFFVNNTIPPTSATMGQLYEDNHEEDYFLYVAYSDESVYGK
Sequence of GABARAP (O95166 1-116): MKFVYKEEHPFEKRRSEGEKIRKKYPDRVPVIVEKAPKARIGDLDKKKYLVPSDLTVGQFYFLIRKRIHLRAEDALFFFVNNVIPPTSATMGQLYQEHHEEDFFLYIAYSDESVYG

`O=c1cc(-c2ccccc2)c2c(O)cc(O)cc2o1` [compound 2] was tested. Which “normalized FP signal, p62 LIR tracer displacement” value (from here on “normalized FP signal”) (GABARAP; [1]) did it give?
The value was 93.9655 and 97.069.

And the “normalized FP signal” value (GABARAP; [2])?
The value was 97.069 and 101.207.

What about the “normalized FP signal” value (GABARAP; [3]) of the same compound?
Its value is 96.5517 and 105.172.

And the “normalized FP signal” value (GABARAP; [4])?
Its value is 96.8966 and 99.8276.

What about the “normalized FP signal” value (GABARAP; [5]) of the same compound?
Its value is 95.5172 and 91.0345.

What about the “normalized FP signal” value (GABARAP; [6]) of the same compound?
Its value is 96.2069 and 97.7586.

And the “normalized FP signal” value (GABARAP; [7])?
The value was 98.1034 and 96.7241.

And the “normalized FP signal” value (GABARAP; [8])?
The value was 99.8276.

And the “normalized FP signal” value (GABARAP; [9])?
Its value is 98.1034 and 97.931.

What about the “normalized FP signal” value (GABARAP; [10]) of the same compound?
Its value is 97.5862.

What about the “normalized FP signal” value (GABARAP; [11]) of the same compound?
The value was 104.655.

What about the “compound titration GABARAP (displacement curve, FP signal)” value (GABARAP; [12]) of the same compound?
The value was 92.5862 and 91.2069.

And the “compound titration GABARAP (displacement curve, FP signal)” value (GABARAP; [13])?
Its value is 93.9655 and 97.069.

What about the “compound titration GABARAP (displacement curve, FP signal)” value (GABARAP; [14]) of the same compound?
The value was 97.069 and 101.207.

And the “compound titration GABARAP (displacement curve, FP signal)” value (GABARAP; log10 concentration [M] -5)?
The value was 96.5517 and 105.172.

What about the “compound titration GABARAP (displacement curve, FP signal)” value (GABARAP; log10 concentration [M] -5.30103) of the same compound?
Its value is 96.8966 and 99.8276.

And the “compound titration GABARAP (displacement curve, FP signal)” value (GABARAP; [15])?
The value was 95.5172 and 91.0345.

What about the “compound titration GABARAP (displacement curve, FP signal)” value (GABARAP; log10 concentration [M] -6.22185) of the same compound?
Its value is 96.2069 and 97.7586.

And the “compound titration GABARAP (displacement curve, FP signal)” value (GABARAP; [16])?
Its value is 98.1034 and 96.7241.

What about the “compound titration GABARAP (displacement curve, FP signal)” value (GABARAP; [8]) of the same compound?
The value was 99.8276.

What about the “compound titration GABARAP (displacement curve, FP signal)” value (GABARAP; log10 concentration [M] -7.79588) of the same compound?
Its value is 98.1034 and 97.931.

What about the “compound titration GABARAP (displacement curve, FP signal)” value (GABARAP; [10]) of the same compound?
The value was 97.5862 and 104.655.

What about the “normalized FP signal” value (GABARAPL1; [17]) of the same compound?
The value was 90.5714 and 94.4286.

What about the “normalized FP signal” value (GABARAPL1; [1]) of the same compound?
Its value is 97.5714 and 96.8571.

And the “normalized FP signal” value (GABARAPL1; [2])?
The value was 97.1429 and 99.

What about the “normalized FP signal” value (GABARAPL1; [3]) of the same compound?
The value was 102.429 and 102.286.

What about the “normalized FP signal” value (GABARAPL1; [4]) of the same compound?
The value was 100.429 and 101.143.

And the “normalized FP signal” value (GABARAPL1; [15])?
The value was 94.4286.

And the “normalized FP signal” value (GABARAPL1; [6])?
Its value is 98.5714 and 100.714.

And the “normalized FP signal” value (GABARAPL1; [7])?
The value was 98.7143 and 100.143.

What about the “normalized FP signal” value (GABARAPL1; [18]) of the same compound?
The value was 102 and 99.5714.

And the “normalized FP signal” value (GABARAPL1; [9])?
Its value is 98.1429 and 99.4286.

What about the “normalized FP signal” value (GABARAPL1; [11]) of the same compound?
Its value is 98.8571 and 103.429.

And the “compound titration GABARAPL1 (displacement curve, FP signal)” value (shortened to “compound titration GABARAPL1”) (GABARAPL1; [12])?
Its value is 90.5714 and 94.4286.

What about the “compound titration GABARAPL1” value (GABARAPL1; [13]) of the same compound?
Its value is 97.5714 and 96.8571.

What about the “compound titration GABARAPL1” value (GABARAPL1; [14]) of the same compound?
Its value is 97.1429 and 99.

And the “compound titration GABARAPL1” value (GABARAPL1; log10 concentration [M] -5)?
Its value is 102.429 and 102.286.

What about the “FP tracer displacement curve signal (compound titration)” value (“FP tracer displacement curve signal” for short) (GABARAPL1; [15]) of the same compound?
Its value is 94.4286.

And the “FP tracer displacement curve signal” value (GABARAPL1; [6])?
The value was 98.5714 and 100.714.

And the “FP tracer displacement curve signal” value (GABARAPL1; [7])?
The value was 98.7143 and 100.143.

And the “FP tracer displacement curve signal” value (GABARAPL1; [18])?
Its value is 102 and 99.5714.

What about the “FP tracer displacement curve signal” value (GABARAPL1; [9]) of the same compound?
Its value is 98.1429 and 99.4286.

And the “FP tracer displacement curve signal” value (GABARAPL1; [11])?
Its value is 98.8571 and 103.429.

And the “normalized FP signal” value (GABARAPL2; [17])?
Its value is 88.4 and 85.2.

And the “normalized FP signal” value (GABARAPL2; [1])?
The value was 94.4 and 106.4.

What about the “normalized FP signal” value (GABARAPL2; [14]) of the same compound?
Its value is 106.

What about the “normalized FP signal” value (GABARAPL2; [2]) of the same compound?
Its value is 104.4.

And the “normalized FP signal” value (GABARAPL2; [3])?
The value was 98 and 106.4.

What about the “normalized FP signal” value (GABARAPL2; [4]) of the same compound?
Its value is 104 and 108.8.

What about the “normalized FP signal” value (GABARAPL2; [5]) of the same compound?
Its value is 92.8 and 98.4.

And the “normalized FP signal” value (GABARAPL2; [6])?
The value was 104 and 94.4.

And the “normalized FP signal” value (GABARAPL2; [16])?
Its value is 100.

What about the “normalized FP signal” value (GABARAPL2; [7]) of the same compound?
Its value is 104.4.

What about the “normalized FP signal” value (GABARAPL2; [8]) of the same compound?
Its value is 116.4.

And the “normalized FP signal” value (GABARAPL2; [18])?
The value was 100.8.

What about the “normalized FP signal” value (GABARAPL2; [9]) of the same compound?
The value was 103.2 and 104.

What about the “normalized FP signal” value (GABARAPL2; [10]) of the same compound?
The value was 105.2.

What about the “normalized FP signal” value (GABARAPL2; [11]) of the same compound?
The value was 104.4.
